ChEMBL document CHEMBL1137575, “Target specific virtual screening: optimization of an estrogen receptor screening platform” (J Med Chem, 2007)
Calls of active or inactive are those of the source. No cut-off for these calls is given here.

Assays:
MCF7 [1] = assay: Antiproliferative activity against MCF7 cells after 72 hrs by MTT assay; type: functional, Homo sapiens
Estrogen receptor = target: T1, Estrogen receptor (Homo sapiens, UniProt P03372); assay: Displacement of fluoromone from human recombinant ERalpha by fluorescence polarization assay
T1 sequence (P03372 whole entry): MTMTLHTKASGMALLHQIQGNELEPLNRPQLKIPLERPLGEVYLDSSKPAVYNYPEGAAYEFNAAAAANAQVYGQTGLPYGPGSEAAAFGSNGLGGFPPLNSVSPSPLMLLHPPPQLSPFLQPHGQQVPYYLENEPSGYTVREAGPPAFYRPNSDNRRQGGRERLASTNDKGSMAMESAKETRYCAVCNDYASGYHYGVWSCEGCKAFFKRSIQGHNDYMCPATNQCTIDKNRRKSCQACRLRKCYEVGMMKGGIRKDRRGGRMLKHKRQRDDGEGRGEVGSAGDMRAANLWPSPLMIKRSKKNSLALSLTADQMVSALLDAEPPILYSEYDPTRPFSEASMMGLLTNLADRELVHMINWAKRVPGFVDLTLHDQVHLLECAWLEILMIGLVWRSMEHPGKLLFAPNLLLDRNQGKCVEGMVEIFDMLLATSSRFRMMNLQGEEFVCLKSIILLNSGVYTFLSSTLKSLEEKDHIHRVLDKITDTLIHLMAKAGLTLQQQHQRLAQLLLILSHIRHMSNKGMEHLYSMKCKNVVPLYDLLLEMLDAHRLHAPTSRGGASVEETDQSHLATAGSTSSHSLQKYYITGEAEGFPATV

Estrogen receptor beta = Estrogen receptor beta (Homo sapiens, UniProt Q92731); assay: Displacement of fluoromone from human recombinant ERbeta by fluorescence polarization assay
Homo sapiens = species: Homo sapiens; assay: Selectivity for ERalpha over ERbeta
MCF7 [2] = assay: Cytotoxicity against MCF7 cells after 72 hrs by LDH assay; type: functional, cell-based; settings: Homo sapiens

Estrogen receptor beta, sequence (Q92731 whole entry): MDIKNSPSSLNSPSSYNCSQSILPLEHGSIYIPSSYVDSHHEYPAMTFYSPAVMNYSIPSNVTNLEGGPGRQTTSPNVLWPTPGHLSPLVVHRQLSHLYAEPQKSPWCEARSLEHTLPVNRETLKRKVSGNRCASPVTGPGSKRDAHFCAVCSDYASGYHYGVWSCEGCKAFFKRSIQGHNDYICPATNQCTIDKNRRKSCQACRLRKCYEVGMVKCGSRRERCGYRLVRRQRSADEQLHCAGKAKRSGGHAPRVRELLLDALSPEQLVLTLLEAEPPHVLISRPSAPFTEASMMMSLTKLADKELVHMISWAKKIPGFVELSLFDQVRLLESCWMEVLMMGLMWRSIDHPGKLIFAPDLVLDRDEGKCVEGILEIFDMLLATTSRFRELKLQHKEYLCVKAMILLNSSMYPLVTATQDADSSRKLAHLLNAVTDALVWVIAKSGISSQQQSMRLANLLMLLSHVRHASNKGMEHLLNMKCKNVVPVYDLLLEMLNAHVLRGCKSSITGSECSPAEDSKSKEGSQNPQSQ

IC50 (Estrogen receptor) [µM] | IC50 (Estrogen receptor beta) [µM] | Ratio IC50 (Homo sapiens) | SMILES | Activity (MCF7 [1]) [µM] | Activity (MCF7 [2])
– | – | – | CC/C(=C(\c1ccccc1)c1ccc(OCCN(C)C)cc1)c1ccccc1 [TAMOXIFEN] | 4.6 | –
0.056 | 0.915 | 17 | COC(=O)C1=C(N)Oc2cc(O)ccc2C1c1ccc(OCc2ccc(C)cc2)cc1 (stereo unspecified) | 7 | Active
1.1 | 6.2 | 4.4 | COc1cc(C2Nc3ccccc3C(=O)N2Cc2ccccc2)ccc1O (stereo unspecified) | 15 | Active

SMILES | IC50 (Estrogen receptor) [µM] | IC50 (Estrogen receptor beta) [µM] | Ratio IC50 (Homo sapiens) | Activity (MCF7 [1]) [µM] | Activity (MCF7 [2])
COC(=O)C1=C(N)Oc2cc(O)ccc2C1c1ccc(OCc2ccccc2F)cc1 (stereo unspecified) | 0.053 | 0.78 | 13.7 | 11.4 | Active
